Source: patent publication US20190388558A1, “KARTOGENIN DERIVATIVE-CONTAINING POLYMERIC MICELLE, HYALURONIC ACID HYDROGEL, METHOD FOR PRODUCING THE SAME, AND USE THEREOF” (DONGGUK UNIVERSITY INDUSTRY-ACADEMIC COOPERATION FOUNDATION, priority 2018, published 2019)

Test system: rats in which OA was induced
Assay: Intra-articular injection in rats with surgically induced (ACLT + MM) degenerative arthritis; histology, immunohistochemistry, OARSI and Mankin scoring
Assay type: in vivo, Sprague Dawley rats
Conditions: IA injection twice at 7th and 10th week after surgery, sacrificed 8th week after first injection
Procedure: Animal experiments were performed with the approval of the animal experiment ethics committee by using 9-week old male Sprague Dawley rats (Orient Inc., Seoul, Korea). Degenerative arthritis (osteoarthritis; OA) was induced by performing anterior cruciate ligament transection (ACLT) and medial meniscectomy (MM) on the rats, and the rats were allowed to exercise on a treadmill for 20 minutes every day from two weeks after the surgery.
In the Examples of the present invention, technical statistics were used in order to determine the group average and standard deviation. […]
The rats were sacrificed at 8th week after the first IA injection, the knee joints were dissected and fixed with 10% paraformaldehyde (at 4° C. for 1 day), and then calcareous materials were removed with a Lite decalcifying solution (Sigma-Aldrich), and after the resulting knee joints were embedded in a Tissue-Tek OCT compound (Sakura Finetek, Torrance, Calif., USA) or paraffin wax, and then the paraffin wax fragment was stained with Safranin-O (4% w/v) and Fast Green (0.1% w/w). The degenerative state was evaluated by using an Osteoarthritis Research Society International (OARSI) cartilage Histopathology Assessment System and a Mankin evaluation system, and the fragments were analyzed through immunohistochemistry for COL2 and aggrecan. […]

Compound: O=C(O)c1ccccc1C(=O)Nc1ccc(-c2ccccc2)cc1 [KGN, kartogenin]
- cartilage histology (Safranin-O staining): loss of cartilage due to matrix vertical cracks and surface layer exfoliation
